Converted amounts (≈) assume the structure as drawn. “And” between values parts separate entries of the source, which are not always exact repeats. Identical values can stand only once. Like-named read-outs stand apart in the source and are kept apart here.
Assays:
MRSA ATCC 43300 = assay: MIC, broth microdilution; type: cell-based, Staphylococcus aureus
Procedure: (§1) Determination of Minimal Inhibitory Concentration (MIC) for Vancomycin, Teicoplanin and Tei-Analogs Versus Selected Strains
(§2) MICs were determined by the broth microdilution method. Specifically, 12 Colonies of the test strain were picked up from 18-24 hour agar cultures and freshly inoculated into broth mediums until reaching the turbidity of a 0.5 McFarland standard. The broth culture was adjusted with broth medium to approximately 1×10^8 CFUmL^−1. […] The plates were incubated in 37° C. for 18-24 hours and monitored for the wells of the positive control, where cells grew, and the wells of the negative control, where wells should not grow. The MIC value was determined for the concentration of a test compound, at which there was no visible growth in the well.

MRSA ATCC 700698 hVISA = assay: MIC, broth microdilution; type: cell-based, Staphylococcus aureus
Procedure: as §1, §2

MRSA ATCC 700787 VRSA = assay: MIC, broth microdilution; type: cell-based, Staphylococcus aureus
Procedure: as §1, §2

MRSA ATCC 700789 VRSA = assay: MIC, broth microdilution; type: cell-based, Staphylococcus aureus
Procedure: as §1, §2

MRSA ATCC BAA-38 = assay: MIC, broth microdilution; type: cell-based, Staphylococcus aureus
Procedure: as §1, §2

MRSA ATCC BAA-39 = assay: MIC, broth microdilution; type: cell-based, Staphylococcus aureus
Procedure: as §1, §2

MRSA ATCC BAA-44 = assay: MIC, broth microdilution; type: cell-based, Staphylococcus aureus
Procedure: as §1, §2

S. aureus ATCC 29213 = assay: MIC, broth microdilution; type: cell-based, Staphylococcus aureus
Procedure: as §1, §2

E. faecalis ATCC 29302 = assay: MIC, broth microdilution; type: cell-based
Procedure: as §1, §2

VRE ATCC 700221 (vanA) = assay: MIC, broth microdilution; type: cell-based, enterococci
Procedure: as §1, §2

VRE ATCC 700425 (vanC) = assay: MIC, broth microdilution; type: cell-based, enterococci
Procedure: as §1, §2

VRE ATCC 700802 (vanB) = assay: MIC, broth microdilution; type: cell-based, enterococci
Procedure: as §1, §2

A. baumannii ATCC 19606 = assay: MIC, broth microdilution; type: cell-based, Acinetobacter baumannii
Procedure: as §1, §2

MRSA ATCC 700787 = assay: Thin-section TEM, cell wall morphology; type: cell-based, Staphylococcus aureus
Procedure: Thin-Section Transmission Electron Microscopy (TEM)
An overnight cultured MRSA ATCC 700787, VRE ATCC 700221 or A. baumannii ATCC 19606 was individually sub-cultured into a fresh medium. Bacteria at the exponential phase were treated with a given test compound at a concentration of 4×MIC for 1-4 hour at 37° C. and followed by wash and resuspension in PBS. Bacteria cells for the TEM analysis were prepared as follows: Cells were fixed with 2.5% glutaraldehyde for 30 minutes. After the fixation, cells were washed twice with PBS and fixed with 1% osmium tetraoxide for another 30 minutes. All the buffer was removed with distilled water. The cells were then stained with 1% uranyl acetate and dehydrated with a graded ethanol solution. Cells were embedded in resin. Finally, each sample was cut into thin slices of approximately 90 nm with a glass knife and stained with uranyl acetate. The images of bacterial morphological were recorded.
The cell wall/membrane apparently is the targets, while the extent of damage depends on what compound imposes on the strain. […] Cell wall thickening has been a common phenotype in clinical MRSA isolates, which may well be a phenotypic determinant for VRSA. The systemic cell-wall damage may account for the cell-wall biosynthesis crippled all over the cell surface in cell-wall thickening strains, thus leading cells to lysis as a result of the osmotic pressure of cytoplasm.

HEK293T cells = assay: Alamar Blue cell viability assay; type: cell-based, human; settings: up to 100 μgmL^−1; 2 and 24 h
Procedure: The Alamar Blue (AB) assay, which includes a redox indicator that changes color or emits fluorescence in response to a metabolic activity, was used to assess in vitro mammalian cell cytotoxicity (human embryonic kidney cells (HEK293T)) upon an antibiotic treatment. 2×10^5 cellsmL^−1 were allowed to adhere on 96-well plates overnight at 37° C. in a humidified incubator (5% CO2 atmosphere). Tested compounds were dissolved in 50% DMSO to make 1 mgmL^−1 of a stock solution. Cells were separately aliquoted with 5 μL of a test compound (final concentration: 100 μgmL^−1) and incubated. PBS and 50% DMSO, which was used to dissolve compounds, served as a control. Cell viability was triplicated and assessed at 2 and 24 hour time points for each test compound, on which the measurements followed the manufacturer protocol.

Dbv27 = Dbv27 (Nonomuraea gerenzanensis, UniProt Q7WZ64); assay: ITC binding affinity; settings: ITC versus Dbv27
Chain of Dbv27 (Q7WZ64 entry or part of it): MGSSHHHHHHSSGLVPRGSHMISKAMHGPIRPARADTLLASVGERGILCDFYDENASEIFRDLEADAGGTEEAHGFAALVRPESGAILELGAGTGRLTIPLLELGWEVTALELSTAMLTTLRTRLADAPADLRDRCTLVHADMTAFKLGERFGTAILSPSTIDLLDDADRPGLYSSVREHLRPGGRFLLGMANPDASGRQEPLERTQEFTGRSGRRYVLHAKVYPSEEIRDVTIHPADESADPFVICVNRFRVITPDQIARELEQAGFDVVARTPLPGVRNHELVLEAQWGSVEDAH
Procedure: Isothermal Titration Calormetry (ITC) Analysis
A stock solution (50 mM) was prepared by dissolving r6,GlcNAc pseudoaglycone (9) in 50% DMSO. The 1 mM protein solutions of Orf2*, Orf2*T and Dbv27 were prepared in a 50 mM HEPES buffer solution at pH 8.0. The solution (50 mM HEPES, pH8.0 and 10% DMSO) that contained compound 9 (1 mM) or S-adenosylmethionine (SAM) (1 mM) in a 40 μL injection syringe was titrated into the Orf2*, Orf2*T or Dbv27 (0.1 mM) protein solution, which was placed in the sample cell of a 200 μL volume. Each titration consisted of 16 injections of a 2 μL4 s^−1 duration in an interval of 150 seconds. Data analysis was performed by software.

| Compound | MIC (MRSA ATCC 43300; MRSA ATCC 43300) | MIC (MRSA ATCC 700698 hVISA; MRSA ATCC 700698 hVISA) | MIC (MRSA ATCC 700787 VRSA; MRSA ATCC 700787 VRSA) | MIC (MRSA ATCC 700789 VRSA; MRSA ATCC 700789 VRSA) | MIC (MRSA ATCC BAA-38; MRSA ATCC BAA-38) | MIC (MRSA ATCC BAA-39; MRSA ATCC BAA-39) | MIC (MRSA ATCC BAA-44; MRSA ATCC BAA-44) | MIC (S. aureus ATCC 29213; SA ATCC 29213) | MIC (E. faecalis ATCC 29302; EF ATCC 29302) | MIC (VRE ATCC 700221 (vanA); VRE ATCC 700221 (vanA)) | MIC (VRE ATCC 700425 (vanC); VRE ATCC 700425 (vanC)) | MIC (VRE ATCC 700802 (vanB); VRE ATCC 700802 (vanB)) | also measured |
| --- | --- | --- | --- | --- | --- | --- | --- | --- | --- | --- | --- | --- | --- |
| CN[C@H](CC(C)C)C(=O)N[C@H]1C(=O)N[C@@H](CC(N)=O)C(=O)N[C@H]2C(=O)N[C@H]3C(=O)N[C@H](C(=O)N[C@H](C(=O)O)c4cc(O)cc(O)c4-c4cc3ccc4O)[C@H](O)c3ccc(c(Cl)c3)Oc3cc2cc(c3O[C@@H]2O[C@H](CO)[C@@H](O)[C@H](O)[C@H]2O[C@H]2C[C@](C)(N)[C@H](O)[C@H](C)O2)Oc2ccc(cc2Cl)[C@H]1O [Compound 2, vancomycin, reference compound] | – | – | – | – | – | – | – | – | – | – | – | – | MIC (MRSA ATCC 43300; Staphylococcus aureus): 1 µg/mL (≈ 0.69 µM); MIC (MRSA ATCC 700698 hVISA; Staphylococcus aureus): 4 µg/mL (≈ 2.76 µM); MIC (MRSA ATCC 700787 VRSA; Staphylococcus aureus): 16 µg/mL (≈ 11 µM); MIC (MRSA ATCC 700789 VRSA; Staphylococcus aureus): 16 µg/mL (≈ 11 µM); MIC (MRSA ATCC BAA-38; Staphylococcus aureus): 1 µg/mL (≈ 0.69 µM); MIC (MRSA ATCC BAA-39; Staphylococcus aureus): 1 µg/mL (≈ 0.69 µM); MIC (MRSA ATCC BAA-44; Staphylococcus aureus): 2 µg/mL (≈ 1.38 µM); MIC (S. aureus ATCC 29213; Staphylococcus aureus, ATCC29213): 1 µg/mL (≈ 0.69 µM); MIC (E. faecalis ATCC 29302; Enterococcus faecalis, ATCC29302): 2 µg/mL (≈ 1.38 µM); MIC (VRE ATCC 700221 (vanA); Enterococcus): > 128 µg/mL; MIC (VRE ATCC 700425 (vanC); Enterococcus): 16 µg/mL (≈ 11 µM); MIC (VRE ATCC 700802 (vanB); Enterococcus): 64 µg/mL (≈ 44.2 µM); MIC (A. baumannii ATCC 19606; Acinetobacter baumannii, ATCC19606): 200 µM and 297 µg/mL; MIC (A. baumannii ATCC 19606; Acinetobacter baumannii, ATCC19606, read-out: MIC on AB): > 190 µg/mL; cell wall morphology by TEM (MRSA ATCC 700787): floppy |
| N[C@H]1C(=O)N[C@@H]2Cc3ccc(c(Cl)c3)Oc3cc4cc(c3O)Oc3ccc(cc3Cl)[C@@H](O[C@@H]3O[C@H](CO)[C@@H](O)[C@H](O)[C@H]3NC(=O)CCCCc3ccc(F)cc3)[C@@H]3NC(=O)[C@H](NC(=O)[C@@H]4NC(=O)[C@@H](NC2=O)c2cc(O)cc(c2)Oc2cc1ccc2O)c1ccc(O)c(c1)-c1c(O)cc(O)cc1[C@@H](C(=O)O)NC3=O [Compound 18] | 0.031 µg/mL (≈ 0.0202 µM) | 0.016 µg/mL (≈ 0.0104 µM) | 0.125 µg/mL (≈ 0.0813 µM) | 0.5 µg/mL (≈ 0.325 µM) | 0.016 µg/mL (≈ 0.0104 µM) | 0.063 µg/mL (≈ 0.041 µM) | 0.016 µg/mL (≈ 0.0104 µM) | 0.063 µg/mL (≈ 0.041 µM) | 0.25 µg/mL (≈ 0.163 µM) | >16 µg/mL | 1 µg/mL (≈ 0.65 µM) | 0.25 µg/mL (≈ 0.163 µM) | cytotoxicity to HEK293T cells (HEK293T cells): did not exhibit any observable toxicity |
| CC(=O)N[C@H]1[C@H](O[C@@H]2c3ccc(c(Cl)c3)Oc3cc4cc(c3O)Oc3ccc(cc3Cl)C[C@H]3NC(=O)[C@H](N(C)C)c5ccc(O)c(c5)Oc5cc(O)cc(c5)[C@H](NC3=O)C(=O)N[C@H]4C(=O)N[C@H]3C(=O)N[C@@H]2C(=O)N[C@H](C(=O)O)c2cc(O)cc(O)c2-c2cc3ccc2O)O[C@H](CO)[C@@H](O)[C@@H]1O [Compound 10, r1,Me2-6,GlcNAc Tei-pseudoaglycone] | 0.25 µg/mL (≈ 0.175 µM) | 1 µg/mL (≈ 0.699 µM) | 0.5 µg/mL (≈ 0.35 µM) | 2 µg/mL (≈ 1.4 µM) | 0.25 µg/mL (≈ 0.175 µM) | 0.125 µg/mL (≈ 0.0874 µM) | 0.125 µg/mL (≈ 0.0874 µM) | 0.25 µg/mL (≈ 0.175 µM) | 2 µg/mL (≈ 1.4 µM) | >128 µg/mL | 4 µg/mL (≈ 2.8 µM) | 4 µg/mL (≈ 2.8 µM) | MIC (A. baumannii ATCC 19606; A. baumannii ATCC 19606, Table 3, first figure of cell): > 200 µM; MIC (A. baumannii ATCC 19606; A. baumannii ATCC 19606, Table 3, second figure of cell): > 285.67 µg/mL |
| N[C@H]1[C@H](O[C@@H]2c3ccc(c(Cl)c3)Oc3cc4cc(c3O)Oc3ccc(cc3Cl)C[C@H]3NC(=O)[C@H](N)c5ccc(O)c(c5)Oc5cc(O)cc(c5)[C@H](NC3=O)C(=O)N[C@H]4C(=O)N[C@H]3C(=O)N[C@@H]2C(=O)N[C@H](C(=O)O)c2cc(O)cc(O)c2-c2cc3ccc2O)O[C@H](CO)[C@@H](O)[C@@H]1O [Compound 12, r6,Glm pseudoaglycone] | – | – | – | – | – | – | – | – | – | – | – | – | Kd (Dbv27): 5 µM |

Reference: US11739122B2, “Glycopeptide antibiotic compounds, methods for producing the same, and uses thereof” (Academia Sinica, priority 2019, dated 2023)
